Measured values from publication PMC10025235, “Pharmacological and mechanistic study of PS1, a Pdia4 inhibitor, in β-cell pathogenesis and diabetes in db/db mice” (Cellular and Molecular Life Sciences: CMLS, 2023).

Target: T1, Pdia4 (Mus musculus, UniProt P08003)
T1 construct: recombinant Pdia4; Flag-Pdia4 plasmid used in Min6 cells
T1 sequence (P08003 21-638): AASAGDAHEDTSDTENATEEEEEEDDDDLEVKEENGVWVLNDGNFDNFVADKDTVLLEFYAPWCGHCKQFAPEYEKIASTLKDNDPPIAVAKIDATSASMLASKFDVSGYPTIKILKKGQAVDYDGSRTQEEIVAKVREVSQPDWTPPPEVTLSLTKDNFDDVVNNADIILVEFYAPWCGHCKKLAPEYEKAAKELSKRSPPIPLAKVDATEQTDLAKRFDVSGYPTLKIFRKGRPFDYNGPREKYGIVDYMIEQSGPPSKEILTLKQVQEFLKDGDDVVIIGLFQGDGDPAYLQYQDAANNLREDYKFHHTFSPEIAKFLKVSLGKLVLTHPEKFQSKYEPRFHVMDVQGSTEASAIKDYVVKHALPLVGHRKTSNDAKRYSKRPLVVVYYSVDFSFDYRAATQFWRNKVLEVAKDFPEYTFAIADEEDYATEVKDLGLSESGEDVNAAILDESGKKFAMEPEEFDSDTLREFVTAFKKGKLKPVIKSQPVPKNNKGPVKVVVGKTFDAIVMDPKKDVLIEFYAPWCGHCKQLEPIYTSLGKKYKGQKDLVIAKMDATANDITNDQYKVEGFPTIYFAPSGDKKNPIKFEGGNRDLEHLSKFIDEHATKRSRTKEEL
Assay: insulin reduction turbidity assay, […] nm
Type: biochemical
Details: insulin substrate; 25 °C; 30 min

IC50: 4 µM
Substance: PS1
